Laboratory results reported in patent EP0552417B1, “Cyclic peptides and use thereof” (priority 1991, dated 1993).
Non-standard residues stand in square brackets, D forms with d. Residues, ends and D or L forms follow the SMILES beside them. *: point of attachment. NMeF = CN[C@@H](Cc1ccccc1)C(=O)O; NMeL = CN[C@@H](CC(C)C)C(=O)O; Orn = NCCC[C@H](N)C(=O)O; PhAc = O=C(Cc1ccccc1)*; Sar = CNCC(=O)O

How the values were obtained:
[1] = biological target: T1, endothelin receptor A (ETA) (Sus scrofa, UniProt Q29010); assay: Assay of affinity for receptor (1): binding activity on ETA receptor, 125I-labeled endothelin-1, porcine heart membrane fraction; design: key: relative specific activity; reference cyclic pentapeptide ETA binding = 1.0; details: specific activity, taking the binding activity of control cyclo[-D-Glu-Ala-D-aIle-Leu-D-Trp-] on receptor A as 1.0, 25°C, 1 hour
T1 construct: A membrane fraction prepared from the porcine heart; from tissue; host or cells: porcine heart membrane fraction
T1 sequence (Q29010 21-427): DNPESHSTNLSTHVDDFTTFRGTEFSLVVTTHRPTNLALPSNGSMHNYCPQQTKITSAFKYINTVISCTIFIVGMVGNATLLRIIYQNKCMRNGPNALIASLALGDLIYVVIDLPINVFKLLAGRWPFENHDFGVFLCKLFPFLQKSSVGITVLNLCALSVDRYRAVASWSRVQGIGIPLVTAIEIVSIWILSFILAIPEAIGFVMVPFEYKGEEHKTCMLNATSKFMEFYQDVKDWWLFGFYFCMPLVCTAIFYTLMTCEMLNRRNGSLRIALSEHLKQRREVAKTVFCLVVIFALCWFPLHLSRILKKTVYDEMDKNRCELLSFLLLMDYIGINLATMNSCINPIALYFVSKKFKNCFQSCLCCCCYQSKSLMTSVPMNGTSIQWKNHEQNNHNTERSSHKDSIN
Protocol: Assay of Affinity for Receptor (1) ... Binding Activity on ETA Receptor
A membrane fraction prepared from the porcine heart was diluted to 0.15 mg/ml by using a buffer solution for assay, and 100 µl of the resulting suspension of the membrane fraction was poured into each assay tube to use for assay. To this suspension of the membrane fraction was added 2 µl of 5 nM ^125I-labeled endothelin-1 solution. Further, 3 µl of a test peptide solution was added thereto, followed by incubation at a temperature of 25°C for 1 hour. Then, the resulting suspension was diluted with 900 µl of the buffer solution for assay cooled with ice, and thereafter separated into a supernatant and a precipitate by centrifugation at 12,000 X g for 10 minutes. Cell membranes and an endothelin receptor A (ETA) embedded therein were contained in the precipitate, and radioactive iodine-labeled endothelin combined with the receptor was also recovered in the precipitate. Accordingly, the amount of radioactive iodine-labeled endothelin combined with the endothelin receptor A (ETA) was determined by measuring the amount of radioactive iodine contained in the precipitate with a gamma-ray counter. The cyclic pentapeptide described in Japanese Patent Application No. 2-413328/1990, cyclo[-D-Glu-Ala-D-aIle-Leu-D-Trp-], was used as a control compound. The numerical value of ETA shown in Table 1 is the value of specific activity, taking the binding activity of this cyclic pentapeptide on the receptor A as 1.0. The binding activity (IC50) of this cyclic pentapeptide on the ETA receptor is 2x10^-6 M.

ETB = ETB radio receptor assay *2, 125I-endothelin-1, guinea pig kidney crude membrane fraction; format: binding, Guinea pigs; details: relative activity, 37 °C, 90 minutes
Protocol: ETB Radio Receptor Assay *2
In the endothelin radio receptor assay, guinea pigs' kidneys were used. Guinea pigs (Std Hartrey, male 250 g, Japan SLC Ltd.) were made to have a cerebral concussion and sacrificed by bleeding from carotid arteries to pick up the kidneys and removed fat therefrom to prepare the kidneys. The obtained kidneys were sliced and homogenized by politron homogenizer in 20 ml of 50 mM Tris-HCl buffer [pH 7.4; 20 mM NaHCO3, 0.1 mM PMSF (Phenylmethylsulfonyl Fluoride), 1 mM EDTA (Ethylenediaminetetraacetic acid)] per one kidney. The homogenized kidney was applied to a centrifugation at 1,000 x g for 15 minutes and the supernatant was further applied to a centrifugation for 20 minutes at 30,000 x g. The resulting precipitate was twice washed with 50 mM Tris-HCl buffer (pH 7.4) containing 0.1 mM PMSF, 1 mM EDTA. The resultant was stored at -80 °C as a crude receptor membrane fraction and was used as the suspension in the following buffer when necessary.
740 Bq of ^125I-endothelin-1 (81.4 TBq/mmol, Du Pont, USA) as a radio ligand, the crude membrane fraction (2.1 µg protein) and samples were added to the following buffer. The reaction was performed at 37 °C, for 90 minutes in 0.2 ml of the buffer [50 mM Tris-HCl buffer (pH 7.4) containing 0.1 mM PMSF, 1 mM EDTA, 0.2% bovine serum albumin].
The reaction was stopped by fast filtration on a glass filter (GF/B, Wattman, USA) by Cell Harvestor (290 PHD, Cambridge-Technology, Great Britain), and the filter was three times washed with 50 mM Tris-HCl buffer (pH 7.4). Radio activity remained on the filter was assayed by a gamma counter.

Binding Activity on ET Receptor (R. act.) ETA [1] | Binding Activity on ET Receptor (R. act.) ETB*2 (ETB) | Structure (SMILES)
2.1 | 26 | CC(C)C[C@@H]1NC(=O)[C@@H](CC(C)C)NC(=O)[C@H](CC(=O)O)NC(=O)[C@H](C)NC(=O)[C@@H](CCC(=O)O)NC(=O)[C@@H](Cc2c[nH]c3ccccc23)NC1=O [Example 41, Cyclo[-D-Glu-Ala-Asp-D-Leu-Leu-D-Trp-]] (cyclo(AD[dL]L[dW][dE]))
2.7 | 13 | CC(C)C[C@@H]1NC(=O)[C@@H](CC(C)C)NC(=O)[C@H](CC(=O)O)NC(=O)[C@H](Cc2ccccc2)N(C)C(=O)[C@@H](CC(=O)O)NC(=O)[C@@H](Cc2c[nH]c3ccccc23)NC1=O [Example 48, Cyclo[-D-Asp-N-MePhe-Asp-D-Leu-Leu-D-Trp-]] (cyclo(D[dL]L[dW][dD][NMeF]))
5.7 | 4.8 | CC(C)C[C@@H]1NC(=O)[C@@H](CC(C)C)NC(=O)[C@H](C)NC(=O)[C@@H](CC(=O)O)NC(=O)[C@@H](CC(=O)O)NC(=O)[C@@H](Cc2c[nH]c3ccccc23)NC1=O [Example 27, Cyclo[-D-Asp-D-Asp-Ala-D-Leu-Leu-D-Trp-]] (cyclo(A[dL]L[dW][dD][dD]))
8.1 | 75 | CC(C)C[C@@H]1NC(=O)[C@@H](CC(C)C)NC(=O)[C@H](CC(=O)O)NC(=O)CN(C)C(=O)[C@@H](CC(=O)O)NC(=O)[C@@H](Cc2c[nH]c3ccccc23)NC1=O [Example 46, Cyclo[-D-Asp-Sar-Asp-D-Leu-Leu-D-Trp-]] (cyclo(D[dL]L[dW][dD][Sar]))
6.8 | 17 | CC(C)C[C@@H]1NC(=O)[C@@H](CC(C)C)NC(=O)[C@H](CC(=O)O)NC(=O)[C@H](CC(C)C)N(C)C(=O)[C@@H](CC(=O)O)NC(=O)[C@@H](Cc2c[nH]c3ccccc23)NC1=O [Example 47, Cyclo[-D-Asp-N-MeLeu-Asp-D-Leu-Leu-D-Trp-]] (cyclo(D[dL]L[dW][dD][NMeL]))
1.7 | – | CC(C)C[C@@H]1NC(=O)[C@@H](CC(C)C)NC(=O)[C@H](CC(=O)O)NC(=O)[C@H]2CCCN2C(=O)[C@@H](CC(=O)O)NC(=O)[C@@H](Cc2c[nH]c3ccccc23)NC1=O [Example 24, Cyclo[-D-Asp-D-Pro-Asp-D-Leu-Leu-D-Trp-]] (cyclo(D[dL]L[dW][dD][dP]))
110 | 330 | CC(C)C[C@@H]1NC(=O)[C@@H](CC(C)C)NC(=O)[C@H](CC(=O)O)NC(=O)[C@H](Cc2c[nH]c3ccccc23)NC(=O)[C@@H](CC(=O)O)NC(=O)[C@@H](Cc2cn(C)c3ccccc23)NC1=O [Example 95, Cyclo[-D-Asp-Trp-Asp-D-Leu-Leu-D-Trp(Me)-]]
5.7 | 5.3 | CC(C)C[C@@H]1NC(=O)[C@@H](CC(C)C)NC(=O)[C@H](C)NC(=O)[C@@H](CCC(=O)O)NC(=O)[C@@H](CC(=O)O)NC(=O)[C@@H](Cc2c[nH]c3ccccc23)NC1=O [Example 28, Cyclo[-D-Asp-D-Glu-Ala-D-Leu-Leu-D-Trp-]] (cyclo(A[dL]L[dW][dD][dE]))
– | 2.0 | CC(C)C[C@H]1NC(=O)[C@H](CC(=O)O)NC(=O)[C@H](C)NC(=O)[C@@H](CC(=O)O)NC(=O)[C@@H](Cc2c[nH]c3ccccc23)NC(=O)[C@H](Cc2ccccc2)NC1=O [Example 57, Cyclo[-D-Asp-Ala-Asp-D-Leu-Phe-D-Trp-]] (cyclo(AD[dL]F[dW][dD]))
1.4 | – | CC(C)C[C@@H]1NC(=O)[C@@H](CC(C)C)NC(=O)CNC(=O)[C@H](C)NC(=O)[C@@H](CCC(=O)O)NC(=O)[C@@H](Cc2c[nH]c3ccccc23)NC1=O [Example 40, Cyclo[-D-Glu-Ala-Gly-D-Leu-Leu-D-Trp-]] (cyclo(AG[dL]L[dW][dE]))

The next lines start with the compound.

Structure (SMILES) | Binding Activity on ET Receptor (R. act.) ETA [1] | Binding Activity on ET Receptor (R. act.) ETB*2 (ETB)
CC(C)C[C@@H]1NC(=O)[C@@H](CC(C)C)NC(=O)[C@H](CC(=O)O)NC(=O)[C@@H](C)NC(=O)[C@@H](CC(=O)O)NC(=O)[C@@H](Cc2c[nH]c3ccccc23)NC1=O [Example 15, Cyclo[-D-Asp-D-Ala-Asp-D-Leu-Leu-D-Trp-]] (cyclo(D[dL]L[dW][dD][dA])) | 5.7 | 7.7
CC(C)C[C@@H]1NC(=O)[C@@H](CC(C)C)NC(=O)[C@H](CC(=O)O)NC(=O)[C@H](CCCNC(=O)Cc2ccccc2)NC(=O)[C@@H](CC(=O)O)NC(=O)[C@@H](Cc2c[nH]c3ccccc23)NC1=O [Example 80, cyclo[-D-Asp-Orn(COCH2Ph)-Asp-D-Leu-Leu-D-Trp-]] (cyclo(D[dL]L[dW][dD][Orn](PhAc))) | 260 | 380
CC(C)C[C@@H]1NC(=O)[C@@H](CC(C)C)NC(=O)[C@H](CCC(=O)O)NC(=O)[C@H](C)NC(=O)[C@@H](CC(=O)O)NC(=O)[C@@H](Cc2c[nH]c3ccccc23)NC1=O [Example 3, cyclo[-D-Asp-Ala-Glu-D-Leu-Leu-D-Trp-]] (cyclo(AE[dL]L[dW][dD])) | 7.9 | 23
CC(C)C[C@@H]1NC(=O)[C@@H](CC(C)C)NC(=O)[C@H](CC(=O)O)NC(=O)[C@H](CC(C)C)NC(=O)[C@@H](CC(=O)O)NC(=O)[C@@H](Cc2c[nH]c3ccccc23)NC1=O [Example 18, Cyclo[-D-Asp-Leu-Asp-D-Leu-Leu-D-Trp-]] (cyclo(D[dL]L[dW][dD]L)) | 13 | 2.2
CC(C)C[C@@H]1NC(=O)[C@@H](CC(C)C)NC(=O)[C@H](CC(=O)O)NC(=O)[C@H](Cc2ccccc2)NC(=O)[C@@H](CC(=O)O)NC(=O)[C@@H](Cc2c[nH]c3ccccc23)NC1=O [Example 19, Cyclo[-D-Asp-Phe-Asp-D-Leu-Leu-D-Trp-]] (cyclo(D[dL]L[dW][dD]F)) | 8.3 | 7.1
CC(C)C[C@@H]1NC(=O)[C@@H](CC(C)C)NC(=O)[C@H](CC(=O)O)NC(=O)[C@H](C(C)C)NC(=O)[C@@H](CC(=O)O)NC(=O)[C@@H](Cc2c[nH]c3ccccc23)NC1=O [Example 17, Cyclo[-D-Asp-Val-Asp-D-Leu-Leu-D-Trp-]] (cyclo(D[dL]L[dW][dD]V)) | 3.7 | 22
CC(C)C[C@@H]1NC(=O)[C@@H](CC(C)C)NC(=O)[C@@H](CCC(=O)O)NC(=O)[C@H](C)NC(=O)[C@@H](CC(=O)O)NC(=O)[C@@H](Cc2c[nH]c3ccccc23)NC1=O [Example 4, cyclo[-D-Asp-Ala-D-Glu-D-Leu-Leu-D-Trp-]] (cyclo(A[dE][dL]L[dW][dD])) | 2.3 | 1.4
CC(C)C[C@@H]1NC(=O)[C@@H](CC(C)C)NC(=O)[C@H](C)NC(=O)CNC(=O)[C@@H](CC(=O)O)NC(=O)[C@@H](Cc2c[nH]c3ccccc23)NC1=O [Example 5, cyclo[-D-Asp-Gly-Ala-D-Leu-Leu-D-Trp-]] (cyclo(A[dL]L[dW][dD]G)) | 1.3 | –
